Values of other authors, collected in PMC8154576, “GPR120/FFAR4 Pharmacology: Focus on Agonists in Type 2 Diabetes Mellitus Drug Discovery” (Journal of Medicinal Chemistry, 2021).
Where two headings read alike, the source gives them in different places. Marks after values point to notes of the source that are not given here. One block for each compound: values may come before it.

Experiments:
[1] = test system: hGPR40; conditions: for EC50: read-out: hGPR40 EC50 (Ca2+)
[2] = test system: muGPR40
[3] = test system: mice; conditions: for reduction of plasma glucose, ΔAUC in OGTT: C57BL/6DIO mice
[4] = not given; remark: listed apart in the source
[5] = test system: hGPR120
[6] = test system: DIO mice
[7] = test system: GPR120
[8] = test system: hGPR120; conditions: for EC50: read-out: hGPR120 EC50 (β-arr)
[9] = set-up: method as in PMID 27570890
[10] = test system: C57BL/6J mice; conditions: for reduction of plasma glucose, ΔAUC in IPGTT: C57BL/6J mice
[11] = not given; remark: listed apart in the source
[12] = test system: MDA-MB-231 cell line; set-up: method as in PMID 28456993
[13] = test system: mGPR120; set-up: method as in PMID 27815121
[14] = test system: hGPR40
[15] = test system: hGPR120; conditions: for EC50: Table 3, read-out: hGPR120 EC50 (IP1)
[16] = test system: mouse GPR120
[17] = test system: human intestinal NCI-H716 cell line; set-up: method as in PMID 24881566
[18] = set-up: method as in PMID 24881566
[19] = test system: MIN6 cell line; set-up: method as in PMID 24881566; conditions: glucose 25 mM, compared to glibenclamide
[20] = test system: Zucker diabetic fatty rats; set-up: method as in PMID 28148462; conditions: 2 weeks, vehicle 192 mg/dL
[21] = test system: db/db mice; set-up: method as in PMID 28148462; conditions: at the same concentrations (10 and 100 mg/kg), vehicle 276 mg/dL
[22] = test system: rat’s anterior pituitary adenoma GH3 cells; set-up: method as in PMID 29843779
[23] = test system: pancreatic cancer PANC-1 cells; set-up: method as in PMID 26282200
[24] = test system: MCF-7 and MDA-MB-231 cell lines; set-up: method as in PMID 26821052
[25] = test system: lean mice; set-up: method as in PMID 29206860; conditions: pretreatment
[26] = test system: GPR120; set-up: method as in PMID 29206860; conditions: cAMP assay in a CHO cell line; read-out: EC50 increase of cAMP levels
[27] = test system: STC-1 cells; conditions: enteroendocrine STC-1 cell line
[28] = Table 2, read-out: hGPR120 EC50 (Ca2+)
[29] = Table 3, read-out: hGPR40 EC50 (IP1)

- oral exposure: moderate oral exposure
- EC50 ([1]; Table 3): > 100000 nM
- EC50 ([2]; FLIPR format, overexpressed mouse GPR40 in cell line, unit inferred): > 100000 nM
- EC50 ([5]; Table 3, read-out: hGPR120 EC50 (Ca2+)): 740 nM
Structure (SMILES): Cc1ccc(-n2nc(C)c3cnc(-c4ccc([C@@H]5C[C@H]5C(=O)O)cc4F)cc32)nc1 [Compound 28]
- decrease in oral glucose excursion in OGTT ([3]; C57BL/6J mice): 45%
- effect on glucose excursion in OGTT ([3]; GPR120 KO mice): no effect
- reduction of glucose excursion in OGTT ([3]; wild-type mice): 47%
- selectivity over 30 several targets [4]: good selectivity

- pharmacokinetic (PK) profile [11]: good pharmacokinetic (PK) profile
- EC50 ([8]; Table 2): 60 nM
- EC50 [5, 28]: 57 nM
Structure (SMILES): CCc1ccc(-c2noc(C(F)(F)F)c2COc2c(F)cc(CCC(=O)O)cc2F)cc1 [Compound 20]
- reduction of plasma glucose, ΔAUC in IPGTT ([10]; 1 mg/kg): 30%
- reduction of plasma glucose, ΔAUC in IPGTT ([10]; 3 mg/kg): 35%
- reduction of plasma glucose, ΔAUC in IPGTT ([10]; 10 mg/kg): 54%

- EC50 ([8]; Table 3): 84 nM
- EC50 [14, 29]: > 10000 nM
- EC50 [15]: 220 nM
Structure (SMILES): Fc1ccc(OC2CCC2)cc1-c1ccc2c(c1)CC[C@H](CCc1nnn[nH]1)O2 [Compound 25]
- in vivo efficacy in OGTT [3]: good in vivo efficacy

- half-life (several species): long half-life
- oral bioavailability (several species): high oral bioavailability
- EC50 ([8]; Table 3): 24 nM
- EC50 [14, 29]: > 10000 nM
- EC50 [15]: 35 nM
Structure (SMILES): COC1CC(Oc2cc(F)c(F)c(-c3ccc4c(c3)CCC(CCC(=O)O)O4)c2)C1 (centres unmarked) [Compound 24]
- in vivo efficacy in OGTT [3]: good in vivo efficacy
- glucose levels in OGTT ([3]; 3 and 10 mg/kg): dose-dependently reduced glucose levels

- hGPR40 pEC50 (Ca2+) ([1]; Table 4): <4.5 ^d
- solubility in simulated intestinal fluid (FASSIF) [18]: weak solubility
- hGPR120 pEC50 (Ca2+) ([5]; Table 4): 6.3 ^d
Structure (SMILES): COc1ccc(S(=O)(=O)Nc2c(C)cc(C)cc2C)cc1 [Compound 31]
- GLP-1 secretion [17]: evoked GLP-1 secretion
- insulin output in GSIS [19]: dose-dependently increased insulin output
- selectivity for GPR120 over more than 65 targets, including GPR40, GPR43, GPR41 [4]: at least 100 fold

- EC50 [26]: 60 nM
- EC50 ([5]; Table 4, read-out: hGPR120 EC50 (Ca2+)): 120 nM
Structure (SMILES): C#Cc1cc(Oc2cccnc2)cc(N2Cc3ccccc3S2(=O)=O)c1 [Compound 33]
- insulin concentration in IVGTT [25]: increase of insulin concentration
- activity against mGPR40 [2]: no activity
- glucose levels in OGTT ([3]; lean male mice): reduce dose-dependently glucose levels
- GLP-1 secretion [27]: boost GLP-1 secretion

Second part, the compound before the results:

Structure (SMILES): O=S1(=O)c2ccccc2CN1c1cc(F)cc(Oc2ccccn2)c1 [Compound 32]
- decrease in body weight, chronic study ([6]; DIO wild-type mice): 7–9%
- glucose levels, chronic study ([6]; DIO wild-type mice): reduced glucose levels
- effect in chronic study ([6]; mice lacking GPR120): no effect
- selectivity for GPR120 over GPR40 [7]: > 300 fold
- glucose levels in OGTT ([3]; C57BL6 mice, 10 mg/kg orally, compared to vehicle control): decrease in glucose levels
- hGPR120 pEC50 (β-arr) ([8]; Table 4): 6.91 ^d
- hGPR120 pEC50 (Ca2+) ([5]; Table 4): 6.63 ^d
- solubility in PBS [9]: relatively low solubility

Structure (SMILES): Cc1ccc(S(=O)(=O)NC2c3ccccc3Oc3ccccc32)cc1 [Compound 5]
- migration induced by 1 [12]: inhibited

Structure (SMILES): O=C(O)CCc1cc2cc(-c3cc(C(F)(F)F)ccc3F)ccc2o1 [Compound 23]
- PK properties (oral bioavailability, half-life, plasma clearance) ([11]; mouse): suitable PK properties
- blood glucose levels in OGTT ([3]; wild-type and GPR120 KO mice, 30 and 100 mg/kg): acute reduction of blood glucose levels
- percentage of receptor activation, mGPR120 [13]: 75%
- EC50 ([14]; read-out: IP1 EC50 GPR40): 1830 nM
- percentage of receptor activation, hGPR120 [15]: 73%
- selectivity over hGPR40 [15]: 29 fold
- EC50 [15]: 63 nM

Structure (SMILES): O=C(O)CCc1cc(F)c(OCc2c(C(F)(F)F)ccn2-c2ccc(Cl)cc2)c(F)c1 [Compound 22]
- clearance (mouse, rat, and dog): low clearance
- half-life (mouse, rat, and dog): suitable half-life
- GPR120 selectivity over GPR40, mouse ([16]; calcium assay): 18 fold
- EC50 ([16]; read-out: EC50 GPR120 calcium assay in mouse): 193 nM
- EC50 ([1]; Table 2): 3340 nM
- reduction in glucose levels in OGTT ([3]; diet-induced obese mice, 3 mg/kg, vs saxagliptin 1 mg/kg): comparable to saxagliptin
- EC50 ([8]; Table 2): 69 nM
- EC50 [5, 28]: 80 nM
- GPR120 selectivity over GPR40, human ([5]; calcium assay): 42 fold
- EC50 ([5]; low-expressing endogenous HT-29 cell line, read-out: EC50 hGPR120 calcium assay): 137 nM

Structure (SMILES): O=C(O)CCc1cc(F)c(OCc2c(-c3ccc(Cl)cc3F)nsc2C(F)(F)F)c(F)c1 [Compound 21]
- pharmacokinetic profile: good pharmacokinetic profile
- EC50 ([1]; Table 2): > 5000 nM
- reduction of plasma glucose, ΔAUC in OGTT ([3]; 1 mg/kg): 61%
- reduction of plasma glucose, ΔAUC in OGTT ([3]; 3 mg/kg): 83%
- EC50 ([8]; Table 2): 143 nM
- EC50 [5, 28]: 42 nM

Structure (SMILES): N#C[C@@H]1C[C@@H]2C[C@@H]2N1C(=O)[C@@H](N)C12CC3CC(CC(O)(C3)C1)C2 [saxagliptin]
- reduction of plasma glucose, ΔAUC in OGTT ([3]; 1 mg/kg): 87%

Structure (SMILES): COc1ccc(C(F)(F)F)cc1COc1ccc(CCC(=O)O)cc1C [Compound 19]
- whole blood glucose levels ([20]; 10 mg/kg): 151 mg/dL
- whole blood glucose levels ([20]; 100 mg/kg): 139 mg/dL
- selectivity GPR120/GPR40, mouse [16]: 80 fold
- EC50 ([1]; Table 1): 11800 nM
- glucose levels [21]: 106 mg/dL
- oral bioavailability ([11]; C57BL/6J mice): excellent oral bioavailability
- selectivity GPR120/GPR40, human [5]: 40 fold
- EC50 ([5]; Table 1, read-out: hGPR120 EC50 (Ca2+)): 299 nM

Structure (SMILES): OCCCc1c(F)cc(OCc2c(-c3ccc(Cl)cc3)csc2C(F)(F)F)cc1F [Compound 30]
- outcome in IPGTT ([10]; GPR120 C57BL6 mice): positive outcomes
- outcome in OGTT ([3]; GPR120 DIO mice): positive outcomes

Structure (SMILES): CC(C)=CCC/C(C)=C/CC/C(C)=C/Cc1c(O)cc(C)c(C(=O)O)c1O [Compound 7, grifolic acid]
- necrosis of GH3 cells [22]: dose- and time-dependently induced the necrosis

Structure (SMILES): O=C(O)CC1CCC2(CC1)CCN(c1cc(OC(F)(F)F)ccc1Cl)CC2 [Compound 26]
- unbound clearance (rat, mouse, dog, and Rhesus): too high unbound clearance
- insulin resistance (HOMA-IR) ([6]; hyperinsulinemic-euglycemic DIO mouse clamp, days 14 and 28): reduction in insulin resistance
- whole blood glucose levels in OGTT ([3]; lean mice (wild-type/GPR120 KO), 30 and 100 mg/kg): dose-dependently reduced whole blood glucose levels
- EC50 [14, 29]: > 10000 nM

Structure (SMILES): CCCCC/C=C\C/C=C\CCCCCCCC(=O)OC [1’s methyl ester]
- GPR120 activity in vitro [7]: inactive in vitro
